# Measured values published in patent US12083101B2, “Biaryl derivatives as YAP/TAZ-TEAD protein-protein interaction inhibitors” (Novartis AG, priority 2020, dated 2024).
# Target: Avi-humanTEAD4 217-434 / Cy5 labeled humanYAP 60-100 (Homo sapiens (Human), UniProt Q15561)
# Test: TR-FRET YAP-TEAD4 in-vitro biochemical assay
# Format: binding
# Details: 1 nM Avi-humanTEAD4 217-434, 20 nM Cy5-humanYAP 60-100, 1 h room temperature
# Method: N-terminus Cy5 labeled humanYAP^60-100 (20 nM) was then added to this preparation. Compounds were dissolved at 10 mM in 100% DMSO and serial dilutions were made in 100% DMSO. The diluted compound solutions were incubated in white 384-well plates (Greiner Bio-One) for 1 h at room temperature with the above described mix. The final DMSO concentration present in the assay was 1%. […] The IC50 values were estimated by fitting the data by nonlinear fit regression (GraphPad Prism).
# Sequence of Avi-humanTEAD4 217-434 / Cy5 labeled humanYAP 60-100 (Q15561 217-434): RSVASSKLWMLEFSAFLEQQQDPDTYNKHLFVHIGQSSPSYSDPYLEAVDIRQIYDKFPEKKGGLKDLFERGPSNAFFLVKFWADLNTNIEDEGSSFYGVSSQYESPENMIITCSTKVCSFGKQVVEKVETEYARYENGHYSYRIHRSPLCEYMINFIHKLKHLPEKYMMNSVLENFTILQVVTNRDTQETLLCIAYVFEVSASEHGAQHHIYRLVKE
row,SMILES,IC50
1,"CC(=O)N1CCC(NC[C@@]2(c3ccccc3)Cc3c(cc(F)c(Cl)c3-c3c(C(N)=O)ccc(OC(F)F)c3F)O2)CC1 (atropisomer, axis not shown) [Example 70, 2-((2S,4S)-2-(((1-acetylpiperidin-4-yl)amino)methyl)-5-chloro-6-fluoro-2-phenyl-2,3-dihydrobenzofuran-4-yl)-4-(difluoromethoxy)-3-fluorobenzamide]",20 nM
2,"CC(C)(C)NC[C@@]1(c2ccccc2)Cc2c(cc(F)c(Cl)c2-c2c(C(N)=O)ccc(OC(F)F)c2F)O1 (atropisomer, axis not shown) [Example 73, 2-((2S,4S)-2-((tert-butylamino)methyl)-5-chloro-6-fluoro-2-phenyl-2,3-dihydrobenzofuran-4-yl)-4-(difluoromethoxy)-3-fluorobenzamide]",14 nM
3,"C[C@@H](CO)NC[C@@]1(c2ccccc2)Cc2c(cc(F)c(Cl)c2-c2c(C(N)=O)ccc(OC(F)F)c2F)O1 (atropisomer, axis not shown) [Example 75, 2-((2S,4S)-5-chloro-6-fluoro-2-((((S)-1-hydroxypropan-2-yl)amino)methyl)-2-phenyl-2,3-dihydrobenzofuran-4-yl)-4-(difluoromethoxy)-3-fluorobenzamide]",38 nM
4,"CC1(NC[C@@]2(c3ccccc3)Cc3c(cc(F)c(Cl)c3-c3c(C(N)=O)ccc(OC(F)F)c3F)O2)CC1 (atropisomer, axis not shown) [Example 76, 2-((2S,4S)-5-chloro-6-fluoro-2-(((1-methylcyclopropyl)amino)methyl)-2-phenyl-2,3-dihydrobenzofuran-4-yl)-4-(difluoromethoxy)-3-fluorobenzamide]",50 nM
5,"COCCNC[C@@]1(c2ccccc2)Cc2c(cc(F)c(Cl)c2-c2c(C(N)=O)ccc(OC(F)F)c2F)O1 (atropisomer, axis not shown) [Example 77, 2-((2S,4S)-5-chloro-6-fluoro-2-(((2-methoxyethyl)amino)methyl)-2-phenyl-2,3-dihydrobenzofuran-4-yl)-4-(difluoromethoxy)-3-fluorobenzamide]",71 nM
6,"NC(=O)c1ccc(OC(F)F)c(F)c1-c1c(Cl)c(F)cc2c1C[C@@](CNCCN1CCCC1=O)(c1ccccc1)O2 (atropisomer, axis not shown) [Example 78, 2-((2S,4S)-5-chloro-6-fluoro-2-(((2-(2-oxopyrrolidin-1-yl)ethyl)amino)methyl)-2-phenyl-2,3-dihydrobenzofuran-4-yl)-4-(difluoromethoxy)-3-fluorobenzamide]",160 nM
7,"NC(=O)c1ccc(OC(F)F)c(F)c1-c1c(Cl)c(F)cc2c1C[C@@](CN[C@H]1C[C@H](COC(F)F)C1)(c1ccccc1)O2 (atropisomer, axis not shown) [Example 80, 2-((2S,4S)-5-chloro-2-(((trans-3-((difluoromethoxy)methyl)cyclobutyl)amino)methyl)-6-fluoro-2-phenyl-2,3-dihydrobenzofuran-4-yl)-4-(difluoromethoxy)-3-fluorobenzamide]",14 nM
8,"NC(=O)c1ccc(OC(F)F)c(F)c1-c1c(Cl)c(F)cc2c1C[C@@](CN[C@H]1C[C@H](F)C1)(c1ccccc1)O2 (atropisomer, axis not shown) [Example 82, 2-((2S,4S)-5-chloro-6-fluoro-2-(((trans-3-fluorocyclobutyl)amino)methyl)-2-phenyl-2,3-dihydrobenzofuran-4-yl)-4-(difluoromethoxy)-3-fluorobenzamide]",119 nM
9,"C[C@]1(NC[C@@]2(c3ccccc3)Cc3c(cc(F)c(Cl)c3-c3c(C(N)=O)ccc(OC(F)F)c3F)O2)CC[C@H](O)CC1 (atropisomer, axis not shown) [Example 84, 2-((2S,4S)-5-chloro-6-fluoro-2-((((trans)-4-hydroxy-1-methylcyclohexyl)amino)methyl)-2-phenyl-2,3-dihydrobenzofuran-4-yl)-4-(difluoromethoxy)-3-fluorobenzamide]",41 nM
10,"NC[C@]1(c2ccccc2)Oc2ccc(Cl)c(-c3c(C(N)=O)ccc(OC(F)F)c3F)c2[C@@H]1O (atropisomer, axis not shown) [Example 87, 2-((2S,3S,4S)-2-(aminomethyl)-5-chloro-3-hydroxy-2-phenyl-2,3-dihydrobenzofuran-4-yl)-4-(difluoromethoxy)-3-fluorobenzamide]",30 nM
11,"COc1ccc(C(N)=O)c(-c2c(Cl)ccc3c2[C@H](O)[C@@](CN)(c2ccc[nH]c2=O)O3)c1F (atropisomer, axis not shown) [Example 92, 2-((2S,3S,4S)-2-(Aminomethyl)-5-chloro-3-hydroxy-2-(2-oxo-1,2-dihydropyridin-3-yl)-2,3-dihydrobenzofuran-4-yl)-3-fluoro-4-methoxybenzamide]",22 nM

# Compounds with a lower IC50, results first:
row,IC50,SMILES
1,3 nM,"C[C@]1(O)CC[C@H](NC[C@@]2(c3ccccc3)Cc3c(cc(F)c(Cl)c3-c3c(C(N)=O)ccc(OC[C@H]4CCCO4)c3F)O2)CC1 (atropisomer, axis not shown) [Example 67b, 2-((2S,4S)-5-chloro-6-fluoro-2-((((trans)-4-hydroxy-4-methylcyclohexyl)amino)methyl)-2-phenyl-2,3-dihydrobenzofuran-4-yl)-3-fluoro-4-(((R)-tetrahydrofuran-2-yl)methoxy)benzamide]"
2,10 nM,"CCc1ccc(C(N)=O)c(-c2c(Cl)c(F)cc3c2C[C@@](CN[C@H]2CC[C@](C)(O)CC2)(c2ccccc2)O3)c1F (atropisomer, axis not shown) [Example 68a, 2-((2S,4S)-5-chloro-6-fluoro-2-((((trans)-4-hydroxy-4-methylcyclohexyl)amino)methyl)-2-phenyl-2,3-dihydrobenzofuran-4-yl)-4-ethyl-3-fluorobenzamide]"
3,12 nM,"CCc1ccc(C(N)=O)c(-c2c(Cl)c(F)cc3c2C[C@@](CN[C@H]2CC[C@@](C)(O)CC2)(c2ccccc2)O3)c1F (atropisomer, axis not shown) [Example 68b, 2-((2S,4S)-5-chloro-6-fluoro-2-((((cis)-4-hydroxy-4-methylcyclohexyl)amino)methyl)-2-phenyl-2,3-dihydrobenzofuran-4-yl)-4-ethyl-3-fluorobenzamide]"
4,2 nM,"C[C@]1(O)CC[C@H](NC[C@@]2(c3ccccc3)Cc3c(cc(F)c(Cl)c3-c3c(C(N)=O)ccc(OCc4ncccn4)c3F)O2)CC1 (atropisomer, axis not shown) [Example 71a, 2-((2S,4S)-5-chloro-6-fluoro-2-((((trans)-4-hydroxy-4-methylcyclohexyl)amino)methyl)-2-phenyl-2,3-dihydrobenzofuran-4-yl)-3-fluoro-4-(pyrimidin-2-ylmethoxy)benzamide]"
5,1 nM,"C[C@]1(O)CC[C@@H](NC[C@@]2(c3ccccc3)Cc3c(cc(F)c(Cl)c3-c3c(C(N)=O)ccc(OCc4ncccn4)c3F)O2)CC1 (atropisomer, axis not shown) [Example 71b, 2-((2S,4S)-5-chloro-6-fluoro-2-((((cis)-4-hydroxy-4-methylcyclohexyl)amino)methyl)-2-phenyl-2,3-dihydrobenzofuran-4-yl)-3-fluoro-4-(pyrimidin-2-ylmethoxy)benzamide]"
6,11 nM,"NC(=O)c1ccc(OC(F)F)c(F)c1-c1c(Cl)c(F)cc2c1C[C@@](CN[C@H]1CC[C@H](n3cnnn3)CC1)(c1ccccc1)O2 (atropisomer, axis not shown) [Example 79, 2-((2S,4S)-2-((((trans)-4-(1H-tetrazol-1-yl)cyclohexyl)amino)methyl)-5-chloro-6-fluoro-2-phenyl-2,3-dihydrobenzofuran-4-yl)-4-(difluoromethoxy)-3-fluorobenzamide]"
